Laboratory results as given in ChEMBL document CHEMBL2311314 (J Med Chem, 2013).
In brackets after ≈: the same amount, converted by molar mass. Activity calls are given as the source filed them. No cut-off for these calls is given here.

Experiments:
[1] = biological target: Replicase polyprotein 1a (Severe acute respiratory syndrome-related coronavirus) (UniProt P0C6U8); test: Inhibition of SARS-CoV 3CLpro expressed in Escherichia coli BL21 (DE3) at 100 uM by FRET assay in presence of 0.01% Triton X-100
Replicase polyprotein 1a [2] = biological target: T1, Replicase polyprotein 1a (Severe acute respiratory syndrome-related coronavirus, UniProt P0C6U8); test: (§1) Inhibition of SARS-CoV 3CLpro expressed in Escherichia coli BL21 (DE3) by FRET assay
[3] = Ratio of EC50 for SARS-CoV infected in african green monkey Vero E6 cells to Ki for SARS-CoV 3CLpro; set-up: species or system Severe acute respiratory syndrome-related coronavirus
[4] = Aqueous solubility of the compound in PBS buffer at pH 7.4 after 4 hrs by HPLC with UV detection analysis; format: physicochemical
[5] = Inhibition of SARS-CoV PL-pro after 10 mins by luminescence assay; set-up: species or system Severe acute respiratory syndrome-related coronavirus
[6] = biological target: Replicase polyprotein 1a (Severe acute respiratory syndrome-related coronavirus) (UniProt P0C6U8); test: as §1
Replicase polyprotein 1a [7] = biological target: T1, Replicase polyprotein 1a; test: Inhibition of SARS-CoV 3CLpro expressed in Escherichia coli BL21 (DE3) after 2 hrs by FRET assay
[8] = biological target: Replicase polyprotein 1a (Severe acute respiratory syndrome-related coronavirus) (UniProt P0C6U8); test: Inhibition of SARS-CoV 3CLpro expressed in Escherichia coli BL21 (DE3) at 100 uM by FRET assay in absence of 0.01% Triton X-100
Human coronavirus HKU1 [9] = test: Inhibition of human coronavirus HKU1 3CLpro expressed in Escherichia coli BL21 (DE3) at 100 uM by FRET assay in absence of 0.01% Triton X-100
[10] = Cytotoxicity against african green monkey Vero E6 cells after 48 hrs by CellTiter-Glo luminescent cell viability assay; format: cell-based; details: chlorocebus sabaeus
Human coronavirus HKU1 [11] = test: Inhibition of human coronavirus HKU1 3CLpro expressed in Escherichia coli BL21 (DE3) at 100 uM by FRET assay in presence of 0.01% Triton X-100
[12] = Cytotoxicity against african green monkey Vero E6 cells assessed as cell death at […] after 48 hrs by CellTiter-Glo luminescent cell viability assay; format: cell-based; details: chlorocebus sabaeus
Murine coronavirus [13] = test: Inhibition of mouse coronavirus 3CLpro expressed in Escherichia coli BL21 (DE3) at 100 uM by FRET assay in presence of 0.01% Triton X-100
Murine coronavirus [14] = test: Inhibition of mouse coronavirus 3CLpro expressed in Escherichia coli BL21 (DE3) at 100 uM by FRET assay in absence of 0.01% Triton X-100

| Compound | inhibition [1] | further results |
| --- | --- | --- |
| CC(C)(C)NC(=O)C(c1cccnc1)N(C(=O)c1cn[nH]c1)c1ccc(C(C)(C)C)cc1 (stereo not drawn) | > 49% | – |
| CC(C)(C)NC(=O)C(c1cccnc1)N(C(=O)c1ccc(F)cc1)c1ccc(C(C)(C)C)cc1 (stereo not drawn) | > 49% | – |
| CC(C)(C)NC(=O)C(c1cccnc1)N(C(=O)c1ncccn1)c1ccc(C(C)(C)C)cc1 (stereo not drawn) | > 49% | – |
| O=C(Oc1cncc(Br)c1)c1cccs1 | – | IC50 (Replicase polyprotein 1a [2]): 0.5 µM |
| Cc1ccc(C(C(=O)NC(C)(C)C)N(C(=O)c2ccco2)c2ccc(C(C)(C)C)cc2)cn1 (stereo not drawn) | < 15% | – |
| COCC(=O)N(c1ccc(C(C)(C)C)cc1)C(C(=O)NC(C)(C)C)c1cccnc1 (stereo not drawn) | > 49% | – |
| CC(C)(C)NC(=O)C(c1cccnc1)N(C(=O)c1cccs1)c1ccc(C(C)(C)C)cc1 (stereo not drawn) | > 49% | IC50 (Replicase polyprotein 1a [2]): 50 µM |
| COc1ccc(C(=O)N(c2ccc(C(C)(C)C)cc2)C(C(=O)NC(C)(C)C)c2cccnc2)cc1 (stereo not drawn) | > 49% | – |
| CC(C)(C)NC(=O)C(c1cccnc1)N(C(=O)c1cc[nH]n1)c1ccc(C(C)(C)C)cc1 (stereo not drawn) | 56% | – |
| CCN(CC)c1ccc(C(=O)On2nnc3ccccc32)cc1 | – | IC50 (Replicase polyprotein 1a [2]): 11.1 µM |
| CC(C)(C)NC(=O)C(c1cnccn1)N(C(=O)c1ccco1)c1ccc(C(C)(C)C)cc1 (stereo not drawn) | – | IC50 (Replicase polyprotein 1a [2]): 5.5 µM |
| CC(C)(C)NC(=O)C(c1cccnc1)N(C(=O)CO)c1ccc(C(C)(C)C)cc1 (stereo not drawn) | > 49% | – |
| CC(C)(C)NC(=O)C(c1cc[nH]n1)N(C(=O)c1ccco1)c1ccc(C(C)(C)C)cc1 (stereo not drawn) | < 15% | – |
| CC(C)(C)NC(=O)C(c1ccnnc1)N(C(=O)c1ccco1)c1ccc(C(C)(C)C)cc1 (stereo not drawn) | – | IC50 (Replicase polyprotein 1a [2]): 10 µM |
| CC(C)(C)NC(=O)C(c1cccnc1)N(C(=O)Cc1cnc[nH]1)c1ccc(C(C)(C)C)cc1 (stereo not drawn) | > 49% | – |
| CC(C)(C)NC(=O)C(c1cccnc1)N(C(=O)C1CCCO1)c1ccc(C(C)(C)C)cc1 (stereo not drawn) | > 49% | – |
| Cn1cnc(C(=O)N(c2ccc(C(C)(C)C)cc2)C(C(=O)NC(C)(C)C)c2cccnc2)c1 (stereo not drawn) | > 49% | IC50 (Replicase polyprotein 1a [2]): 75 µM |
| CC(C)(C)NC(=O)C(c1cccnc1)N(C(=O)c1cnco1)c1ccc(C(C)(C)C)cc1 (stereo not drawn) | > 49% | IC50 (Replicase polyprotein 1a [2]): 39 µM |
| CC(C)(C)NC(=O)C(c1cccnc1)N(C(=O)c1ccccn1)c1ccc(C(C)(C)C)cc1 (stereo not drawn) | > 49% | – |
| CC(C)(C)NC(=O)C(c1cccnc1)N(C(=O)CC(F)(F)F)c1ccc(C(C)(C)C)cc1 (stereo not drawn) | 57% | – |
| CC(C)(C)NC(=O)C(c1ccccn1)N(C(=O)c1ccco1)c1ccc(C(C)(C)C)cc1 (stereo not drawn) | < 15% | – |
| CC(C)(C)NC(=O)C(c1cccnc1)N(C(=O)c1ccc[nH]1)c1ccc(C(C)(C)C)cc1 (stereo not drawn) | > 49% | – |
| Cc1ccc(C(=O)N(c2ccc(C(C)(C)C)cc2)C(C(=O)NC(C)(C)C)c2cccnc2)o1 (stereo not drawn) | 55% | – |
| CC(C)(C)NC(=O)C(c1cccnc1)N(C(=O)c1cccc(O)c1)c1ccc(C(C)(C)C)cc1 (stereo not drawn) | > 49% | – |
| CC(C)(C)NC(=O)C(c1cccnc1)N(C(=O)c1ccncc1)c1ccc(C(C)(C)C)cc1 (stereo not drawn) | > 49% | – |
| CC[C@H](NC(=O)[C@@H](NC(=O)OCc1ccccc1)[C@@H](C)OC(C)(C)C)C(=O)N[C@H](C=O)C[C@@H]1CCNC1=O | – | Ratio [3]: 11.5 |

| Compound | inhibition [1] | further results |
| --- | --- | --- |
| C=C(Cc1cccc(C)c1)C1=CC=C(c2ccc(C)cc2)C1 | – | IC50 (Replicase polyprotein 1a [2]): 13 µM |
| CC(C)(C)NC(=O)C(c1cccnc1)N(C(=O)c1ccc(Cl)o1)c1ccc(C(C)(C)C)cc1 (stereo not drawn) | > 49% | IC50 (Replicase polyprotein 1a [2]): 5.2 µM |
| CC(C)(C)NC(=O)[C@@H](c1cccnc1)N(C(=O)c1ccco1)c1ccc(C(C)(C)C)cc1 | – | solubility at 4 h [4]: 219 µM (≈ 94.9 µg/mL) |
| COc1ccccc1C(=O)N(c1ccc(C(C)(C)C)cc1)C(C(=O)NC(C)(C)C)c1cccnc1 (stereo not drawn) | > 49% | – |
| CC(C)(C)NC(=O)C(c1cccnc1)N(C(=O)Cc1ccccc1)c1ccc(C(C)(C)C)cc1 (stereo not drawn) | > 49% | – |
| COc1cccc(C(=O)N(c2ccc(C(C)(C)C)cc2)C(C(=O)NC(C)(C)C)c2cccnc2)c1 (stereo not drawn) | > 49% | – |
| Cc1ccoc1C(=O)N(c1ccc(C(C)(C)C)cc1)C(C(=O)NC(C)(C)C)c1cccnc1 (stereo not drawn) | 53% | – |
| CCC(C)c1ccc(N(C(=O)c2ccco2)C(C(=O)NC2CCCC2)c2cccnc2)cc1 (stereo not drawn) | – | IC50 [5]: 34 µM; IC50 (Replicase polyprotein 1a [2]): 2.2 µM |
| CC(C)(C)NC(=O)C(c1cccnc1)N(C(=O)c1ccco1)c1ccc(F)cc1 (stereo not drawn) | – | inhibition [6]: inactive |
| CC(C)(C)NC(=O)C(c1cccnc1)N(C(=O)c1ccc(O)cc1)c1ccc(C(C)(C)C)cc1 (stereo not drawn) | > 49% | – |
| CC(C)(C)NC(=O)C(c1cccnc1)N(C(=O)c1ccco1)C1CC1 (stereo not drawn) | – | inhibition [6]: inactive |
| CC(C)c1ccc(N(C(=O)c2ccco2)C(C(=O)NC(C)(C)C)c2cccnc2)cc1 (stereo not drawn) | – | IC50 (Replicase polyprotein 1a [2]): 28.1 µM |
| CC(C)(C)NC(=O)C(c1ccsc1)N(C(=O)c1ccco1)c1ccc(C(C)(C)C)cc1 (stereo not drawn) | 11% | inhibition [6]: inactive |
| CC(C)(C)NC(=O)C(c1ccncc1)N(C(=O)c1ccco1)c1ccc(C(C)(C)C)cc1 (stereo not drawn) | – | IC50 (Replicase polyprotein 1a [2]): 45 µM |
| CC(C)(C)NC(=O)C(c1c[nH]cn1)N(C(=O)c1ccco1)c1ccc(C(C)(C)C)cc1 (stereo not drawn) | 23% | – |
| CC(C)(C)NC(=O)C(c1cn[nH]c1)N(C(=O)c1ccco1)c1ccc(C(C)(C)C)cc1 (stereo not drawn) | 16% | – |
| CC(C)(C)NC(=O)C(c1cccnc1)N(C(=O)C1=NC=NC1)c1ccc(C(C)(C)C)cc1 (stereo not drawn) | > 49% | IC50 (Replicase polyprotein 1a [2]): 6 µM |
| CC(C)(C)NC(=O)C(c1cccnc1)N(C(=O)c1ncc[nH]1)c1ccc(C(C)(C)C)cc1 (stereo not drawn) | 49% | – |
| CC(C)(C)NC(=O)C(c1cccnc1)N(C(=O)c1ccccc1O)c1ccc(C(C)(C)C)cc1 (stereo not drawn) | > 49% | – |
| CC(C)CC(=O)N(c1ccc(C(C)(C)C)cc1)C(C(=O)NC(C)(C)C)c1cccnc1 (stereo not drawn) | > 49% | – |
| CC(C)(C)NC(=O)C(c1cccnc1)N(C(=O)c1cccnc1)c1ccc(C(C)(C)C)cc1 (stereo not drawn) | > 49% | – |
| CC(C)(C)NC(=O)C(c1c[nH]nn1)N(C(=O)c1ccco1)c1ccc(C(C)(C)C)cc1 (stereo not drawn) | 23% | – |
| CC(C)(C)NC(=O)C(c1cccnc1)N(C(=O)c1ncco1)c1ccc(C(C)(C)C)cc1 (stereo not drawn) | > 49% | IC50 (Replicase polyprotein 1a [2]): 47 µM |
| CC(C)(C)NC(=O)C(c1cccnc1)N(C(=O)c1ccc(Cl)cc1)c1ccc(C(C)(C)C)cc1 (stereo not drawn) | > 49% | – |
| CN(C)CCCSc1ccccc1NC(=O)/C=C/c1ccccc1 [CINANSERIN] | inactive | IC50 (Replicase polyprotein 1a [7]): 5 µM; inhibition [8]: inactive; inhibition (Human coronavirus HKU1 [9]): inactive; CC50 at 48 h [10]: 31 µM; CC90 at 48 h [10]: 66 µM; inhibition (Human coronavirus HKU1 [11]): inactive; Activity [12]: > 90%; inhibition (Murine coronavirus [13]): inactive; inhibition (Murine coronavirus [14]): inactive |
